Data: patent US20250214942A1, “INHIBITORS OF RECEPTOR INTERACTING PROTEIN KINASE I FOR THE TREATMENT OF DISEASE” (Board of Regents, The University of Texas System, priority 2019, published 2025)

Each compound was assayed on human monocytic cell line U937 (assay: Human U937 cellular necroptosis assay (TNFalpha + z-VAD-FMK, Cell Titer-Glo viability)). Conditions: Homo sapiens, U-937, 22 h, U937 cells, 25 ng/mL human TNFalpha + 25 μM z-VAD-FMK, read-out: hU937 Avg IC50.
Format: cell-based
Procedure, shortened: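 Readout is CellTiter-Glo 2.0 luminescence after 22 h at 37° C with compound, in cells triggered by human TNFalpha (25 ng/mL) and z-VAD-FMK (25 μM) in phenol red-free RPMI/10% FBS. Values are run-averaged IC50s from a four-parameter logistic curve.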
`CC1CCN(C(=O)C23CC(COc4cnc(C#N)cn4)(C2)C3)C1c1ccccc1` (stereo not shown) [Example 302, 5-((3-(3-methyl-2-phenyl-pyrrolidine-1-carbonyl)-bicyclo[1.1.1]pentan-1-yl)-methoxy)pyrazine-2-carbonitrile] was tested, and the IC50 was 9870 nM.
For `N#Cc1ccc(OCC23CC(C(=O)N4N=CCC4c4ncccc4F)(C2)C3)nc1` (stereo not shown) [Example 303, 6-((3-(5-(3-fluoropyridin-2-yl)-4,5-dihydro-1H-pyrazole-1-carbonyl)bicyclo[1.1.1]-pentan-1-yl)methoxy)-nicotinonitrile], the IC50 was 500 nM.
Work on `Cc1cc(F)c(C2CC=NN2C(=O)C23CC(COc4cnc(C#N)cn4)(C2)C3)c(F)c1` (stereo not shown) [Example 304, 5-((3-(5-(2,6-difluoro-4-methylphenyl)-4,5-dihydro-1H-pyrazole-1-carbonyl)-bicyclo[1.1.1]pentan-1-yl)-methoxy)pyrazine-2-carbonitrile] yielded an IC50 of 6 nM.
`Cc1cc(F)c(C2CC=NN2C(=O)C23CC(COc4ccc(C#N)cn4)(C2)C3)cc1F` (stereo not shown) [Example 305, 6-((3-(5-(2,5-difluoro-4-methylphenyl)-4,5-dihydro-1H-pyrazole-1-carbonyl)-bicyclo[1.1.1]pentan-1-yl)-methoxy)nicotinonitrile] gave an IC50 of 6.5 nM.
`N#Cc1cnc(OCC23CC(C(=O)N4N=CCC4c4cccc(F)c4F)(C2)C3)cn1` (stereo not shown) [Example 306, 5-((3-(5-(2,3-difluorophenyl)-4,5-dihydro-1H-pyrazole-1-carbonyl)bicyclo[1.1.1]pentan-1-yl)methoxy)pyrazine-2-carbonitrile] was tested, and the IC50 was 6.6 nM.
Work on `N#Cc1cnc(OCC23CC(C(=O)N4N=CCC4c4c(F)cccc4F)(C2)C3)cn1` (stereo not shown) [Example 307, 5-((3-(5-(2,6-difluorophenyl)-4,5-dihydro-1H-pyrazole-1-carbonyl)bicyclo[1.1.1]pentan-1-yl)methoxy)pyrazine-2-carbonitrile] yielded an IC50 of 8.7 nM.
`N#Cc1ccc(OCC23CC(C(=O)N4N=CCC4c4cc(F)ccc4F)(C2)C3)nc1` (stereo not shown) [Example 308, 6-((3-(5-(2,5-difluorophenyl)-4,5-dihydro-1H-pyrazole-1-carbonyl)bicyclo[1.1.1]pentan-1-yl)methoxy)nicotinonitrile] was tested, and the IC50 was 11 nM.
With `Cc1ccc(C2CC=NN2C(=O)C23CC(Cn4ncc5cc(C#N)ccc54)(C2)C3)cc1` (stereo not shown) [Example 309, 1-((3-(5-(p-tolyl)-4,5-dihydro-1H-pyrazole-1-carbonyl)-bicyclo[1.1.1]pentan-1-yl)-methyl)-1H-indazole-5-carbonitrile] the IC50 was 13 nM.
Compound `N#Cc1cnc(OCC23CC(C(=O)N4N=CCC4c4ccc(Cl)cc4)(C2)C3)cn1` (stereo not shown) [Example 310, 5-((3-(5-(4-chlorophenyl)-4,5-dihydro-1H-pyrazole-1-carbonyl)bicyclo[1.1.1]pentan-1-yl)methoxy)pyrazine-2-carbonitrile] has an IC50 of 22 nM.
`N#Cc1cnc(OCC23CC(C(=O)N4N=CCC4c4cccc(Cl)c4Cl)(C2)C3)cn1` (stereo not shown) [Example 311, 5-((3-(5-(2,3-dichlorophenyl)-4,5-dihydro-1H-pyrazole-1-carbonyl)bicyclo[1.1.1]pentan-1-yl)methoxy)pyrazine-2-carbonitrile] gave an IC50 of 40 nM.
Work on `N#Cc1cnc(OCC23CC(C(=O)N4N=CCC4c4ccc(C(F)(F)F)cc4)(C2)C3)cn1` (stereo not shown) [Example 312, 5-((3-(5-(4-(trifluoromethyl)-phenyl)-4,5-dihydro-1H-pyrazole-1-carbonyl)bicyclo-[1.1.1]pentan-1-yl)methoxy)-pyrazine-2-carbonitrile] yielded an IC50 of 62 nM.
`Cc1nc(OCC23CC(C(=O)N4N=CCC4c4cnc(C#N)cn4)(C2)C3)ccc1F` (stereo not shown) [Example 313, 5-(1-(3-(((5-fluoro-6-methylpyridin-2-yl)oxy)-methyl)bicyclo[1.1.1]pentane-1-carbonyl)-4,5-dihydro-1H-pyrazol-5-yl)pyrazine-2-carbonitrile] showed an IC50 of 251 nM.
Compound `Cc1ccccc1C1CC=NN1C(=O)C12CC(COc3ccc(C#N)cn3)(C1)C2` (stereo not shown) [Example 314, 6-((3-(5-(o-tolyl)-4,5-dihydro-1H-pyrazole-1-carbonyl)-bicyclo[1.1.1]pentan-1-yl)-methoxy)nicotinonitrile] has an IC50 of 475 nM.
`Cc1nc(C2CC=NN2C(=O)C23CC(COc4ccc(C#N)cn4)(C2)C3)ccc1F` (stereo not shown) [Example 315, 6-((3-(5-(5-fluoro-6-methyl-pyridin-2-yl)-4,5-dihydro-1H-pyrazole-1-carbonyl)bicyclo-[1.1.1]pentan-1-yl)methoxy)-nicotinonitrile] showed an IC50 of 666 nM.
For `N#Cc1cnc(OCC23CC(C(=O)N4N=CCC4c4ncc5ccccn45)(C2)C3)cn1` (stereo not shown) [Example 316, 5-((3-(5-(imidazo[1,5-a]-pyridin-3-yl)-4,5-dihydro-1H-pyrazole-1-carbonyl)bicyclo-[1.1.1]pentan-1-yl)methoxy)-pyrazine-2-carbonitrile], the IC50 was 694 nM.
`N#Cc1cnc(OCC23CC(C(=O)N4N=CCC4c4cn5ccccc5n4)(C2)C3)cn1` (stereo not shown) [Example 317, 5-((3-(5-(imidazo[1,2-a]-pyridin-2-yl)-4,5-dihydro-1H-pyrazole-1-carbonyl)bicyclo-[1.1.1]pentan-1-yl)methoxy)-pyrazine-2-carbonitrile] gave an IC50 of 8510 nM.
With `N#Cc1cnc(OCC23CC(C(=O)N4N=CCC4c4ccccc4Cl)(C2)C3)cn1` (stereo not shown) [Example 318, 5-((3-(5-(2-chlorophenyl)-4,5-dihydro-1H-pyrazole-1-carbonyl)bicyclo[1.1.1]pentan-1-yl)methoxy)pyrazine-2-carbonitrile] the IC50 was 55 nM.
With `N#Cc1cnc(OCC23CC(C(=O)N4N=CCC4c4cc(F)cc(F)c4)(C2)C3)c(Cl)c1` (stereo not shown) [Example 319, 5-chloro-6-((3-(5-(3,5-difluorophenyl)-4,5-dihydro-1H-pyrazole-1-carbonyl)-bicyclo[1.1.1]pentan-1-yl)-methoxy)nicotinonitrile] the IC50 was 21 nM.
`O=C(N1N=CCC1c1cc(F)cc(F)c1)C12CC(COc3ncc(Cl)cn3)(C1)C2` (stereo not shown) [Example 322, (3-(((5-chloropyrimidin-2-yl)oxy)methyl)bicyclo[1.1.1]-pentan-1-yl)(5-(3,5-difluoro-phenyl)-4,5-dihydro-1H-pyrazol-1-yl)methanone] showed an IC50 of 60 nM.
`N#Cc1ccc(OCC23CC(C(=O)N4N=CCC4c4cc(F)cc(F)c4)(C2)C3)nn1` (stereo not shown) [Example 323, 6-((3-(5-(3,5-difluorophenyl)-4,5-dihydro-1H-pyrazole-1-carbonyl)bicyclo[1.1.1]pentan-1-yl)methoxy)pyridazine-3-carbonitrile] gave an IC50 of 153 nM.
Work on `N#Cc1cnc(OCC23CC(C(=O)N4N=CCC4c4cc(F)cc(F)c4)(C2)C3)nc1` (stereo not shown) [Example 324, 2-((3-(5-(3,5-difluorophenyl)-4,5-dihydro-1H-pyrazole-1-carbonyl)bicyclo[1.1.1]pentan-1-yl)methoxy)pyrimidine-5-carbonitrile] yielded an IC50 of 166 nM.
In the case of `COc1cnnc(OCC23CC(C(=O)N4N=CCC4c4cc(F)cc(F)c4)(C2)C3)c1` (stereo not shown) [Example 329, (5-(3,5-difluorophenyl)-4,5-dihydro-1H-pyrazol-1-yl)(3-(((5-methoxypyridazin-3-yl)-oxy)methyl)bicyclo[1.1.1]-pentan-1-yl)methanone], the IC50 is reported as 1290 nM.
`N#Cc1ccc(OCC23CC(C(=O)N4N=CCC4c4cc(F)c(C5CC5)c(F)c4)(C2)C3)nc1` (stereo not shown) [Example 339, 6-((3-(5-(4-cyclopropyl-3,5-difluorophenyl)-4,5-dihydro-1H-pyrazole-1-carbonyl)-bicyclo[1.1.1]pentan-1-yl)-methoxy)nicotinonitrile] showed an IC50 of 453 nM.
Work on `N#Cc1ccc2c(cnn2CC23CC(C(=O)N4N=CCC4c4cc(F)c(C5CC5)c(F)c4)(C2)C3)c1` (stereo not shown) [Example 340, 1-((3-(5-(4-cyclopropyl-3,5-difluorophenyl)-4,5-dihydro-1H-pyrazole-1-carbonyl)-bicyclo[1.1.1]pentan-1-yl)-methyl)-1H-indazole-5-carbonitrile] yielded an IC50 of 54 nM.
Compound `Cn1cc(-c2ccc(OCC34CC(C(=O)N5N=CCC5c5cc(F)cc(F)c5)(C3)C4)c(Cl)c2)cn1` (stereo not shown) [Example 341, (3-((2-chloro-4-(1-methyl-1H-pyrazol-4-yl)phenoxy)methyl)-bicyclo[1.1.1]pentan-1-yl)(5-(3,5-difluorophenyl)-4,5-dihydro-1H-pyrazol-1-yl)-methanone] has an IC50 of 23 nM.
In the case of `N#Cc1ccc(OCC23CC(C(=O)N4N=CCC4c4cc(F)c(CO)c(F)c4)(C2)C3)nc1` (stereo not shown) [Example 342, 6-((3-(5-(3,5-difluoro-4-(hydroxymethyl)phenyl)-4,5-dihydro-1H-pyrazole-1-carbonyl)bicyclo[1.1.1]pentan-1-yl)methoxy)nicotinonitrile], the IC50 is reported as 380 nM.
For `Cn1cc(-c2cnc(OCC34CC(C(=O)N5N=CCC5c5cc(F)cc(F)c5)(C3)C4)cn2)cn1` (stereo not shown) [Example 344, (5-(3,5-difluorophenyl)-4,5-dihydro-1H-pyrazol-1-yl)(3-(((5-(1-methyl-1H-pyrazol-4-yl)pyrazin-2-yl)oxy)methyl)-bicyclo[1.1.1]pentan-1-yl)methanone], the IC50 was 56 nM.
Compound `Cc1cc(F)c(C2CC=NN2C(=O)C23CC(COc4cnc(-c5cnn(C)c5)cn4)(C2)C3)cc1F` (stereo not shown) [Example 345, (5-(2,5-difluoro-4-methylphenyl)-4,5-dihydro-1H-pyrazol-1-yl)(3-(((5-(1-methyl-1H-pyrazol-4-yl)pyrazin-2-yl)oxy)methyl)bicyclo[1.1.1]pentan-1-yl)methanone] has an IC50 of 61 nM.
